pIC50: −log10 of the molar value. Read-outs that look alike come from different tables or passages of the source. Marks after values point to notes of the source that are not given here.
Assays:
Assay in all cases: Cell growth and viability (neutral red / sulforhodamine B) and morphology
Assay type in all cases: cell-based, human
DU145 cells = tested on: DU145 cells
Description: (§1) Each product (1 to 5) was applied for 1 to 72 hours, at various concentrations. The number of cells was compared with a control, namely cells cultured in the absence of the test compound.
(§2) The human prostate carcinoma cells DU145 and 22Rv1 were supplied by the American Type Culture Collection (ATCC, Rockville, Md.). The DU145 cells originate from a cerebral metastasic site and are not sensitive to androgens. The 22Rv1 cells originate from a prostate carcinoma and are sensitive to androgens. The cells were maintained in the form of a monolayer culture according to the usual techniques, in […] flasks (Corning), at 37° C., in an atmosphere containing 5% CO2 and at 95% humidity, in an RPMI-1640 medium free of phenol red and supplemented with 10% of heat-inactivated fetal calf serum and 1% of L-glutamine.
(§3) Five products were tested for this study and were stored protected from light, at +4° C. The β-sitosterol (product 1), obtained from Sigma Chemicals, was first dissolved in absolute ethanol, up to a final concentration of 24.1 mM. Product 2, supplied by Barry Callebaut, France, is a defatted cocoa extract containing 35.5% polyphenols and 0.081% β-sitosterol. Product 3 was reconstituted from products 1 and 2 and contained 35.5% polyphenols and 0.72% β-sitosterol. Products 4 and 5 were manufactured by Barry Callebaut, France. The composition of product 4 is unknown, and contains no β-sitosterol. Product 5 contains 35.27% polyphenols and 0.72% β-sitosterol. Products 2, 3, 4 and 5 were first dissolved in whole medium. As regards products 2, 4 and 5, the total polyphenols of the cocoa extracts originate from different countries.
(§4) Just before use, the final concentrations of products (table 1) used are prepared for the various experiments by means of stock solutions, by diluting the stock solution in whole medium. 64.2 μM of β-sitosterol is the maximum dose used in this solubility range and in the physiological range (4 to 70 μM). The absolute ethanol is at a constant concentration of 0.26% in the solvent-based control, in the negative control and in the 8 test concentrations. The ratios of the β-sitosterol and of the polyphenols for products 2, 3 and 5 are as follows: • Product 2:2:1000 • Product 3:2:100 • Product 5:2:100
(§5) The cells were inoculated on 96-well plates at an initial density of 15 000 cells/well for DU145, at an initial density of 30 000 cells/well for 22Rv1 and at an initial density of 25 000 cells/well for RWEP-1, with 200 μL of medium per well. The cell density was optimized as a function of the time required to double the population of cells, in order to obtain a significant measurement of the Optical Density (OD) and to be able to compare the various cells lines. After 24 hours, in order to ensure uniform fixing of the cells from the start of the experiments, the products were added to the cell cultures at various concentrations and at various times. After incubation with the products, the growth and viability of the cells was measured using neutral red (NR) and sulforhodamine B (SRB) combined (In Cytotox, Vandoeuvre, France). The absorption of the vital stain NR was used by the lysosomes/endosomes and by the vacuoles of the live cells as a quantitative indication of the number and viability of the cells after treatment with a chemical test. The anionic stain SRB made it possible to quantify the viable cells via measurement of the protein content of the cells.
(§6) The cytotoxicity was evaluated 1, 3, 6, 24, 48 and 72 hours after incubating the 22Rv1, RWEP-1 and DU145 cells with the products. The cells were washed with 200 μl of washing solution in order to remove the culture medium supplemented with the products. 200 μL of neutral red base medium was added and incubated with the cells at 37° C. for 3 hours. The neutral red base medium was then removed and the cells were washed twice with phosphate-buffered physiological saline (PBS). The cells were fixed for 1 minute with 200 μL of fixing solution. […]

22Rv1 cells = conditions: for pIC50: 72 h, read-out: CI50 (the source's name)
Description: as §1, §2, §3, §4, §5, §6

RWEP-1 cells = tested on: RWEP-1 cells
Description: as §1
The RPMI-1640 medium, the fetal calf serum and the L-glutamine were supplied by Gibco BRL (Cergy Pontoise, France). The cell cultures were replaced every 5 days to ensure exponential growth. The normal human prostate cells RWEP-1 were supplied by the American Type Culture Collection (ATCC, Rockville, Md.). The cells were maintained in the form of a monolayer culture according to the usual techniques, in […] flasks, at 37° C., in an atmosphere containing 5% CO2 and at 95% humidity, in a medium free of serum and of keratinocytes, supplemented with 2.5 μg of recombinant human EGF and 25 mg of calf pituitary extract. The medium was supplied by Gibco BRL (Cergy Pontoise, France).
as §3, §4, §5
as §6, with “(PBS).” for “(PBS). The cells were fixed for 1 minute with 200 μL of fixing solution.”

Question: Which results are given for `CC[C@H](CC[C@@H](C)[C@H]1CC[C@H]2[C@@H]3CC=C4C[C@@H](O)CC[C@]4(C)[C@H]3CC[C@]12C)C(C)C` [β-sitosterol]?
Answer: max. inhibition (DU145 cells; 24 h, DU145, NR): 11%; max. inhibition (DU145 cells; 24 h, DU145, SRB): 42%; max. inhibition (DU145 cells; 48 h, DU145, NR): 21%; max. inhibition (DU145 cells; 48 h, DU145, SRB): 44%; max. inhibition (DU145 cells; 72 h, DU145, NR): 42%; max. inhibition (DU145 cells; 72 h, DU145, SRB): 40%; Morphological alterations (DU145 cells; DU145, maximum concentration, up to 48 hours): No significant difference was observed in terms of density and morphology; IC50 (DU145 cells; DU145, short-term and long-term treatments): did not induce an IC50; Inhibition of lysosomial activity or protein synthesis (22Rv1 cells; 22Rv1, 1, 3 and 6 hours of treatment): did not inhibit the lysosomial activity or protein synthesis; Morphological alterations (22Rv1 cells; 22Rv1, maximum concentration, up to 48 hours): No significant difference in terms of density and morphology; max. inhibition (22Rv1 cells; 24 h, 22RV1, NR): 49%; max. inhibition (22Rv1 cells; 24 h, 22RV1, SRB): 49%; max. inhibition (22Rv1 cells; 48 h, 22RV1, NR): 36%; max. inhibition (22Rv1 cells; 48 h, 22RV1, SRB): 47%; pIC50 (22Rv1 cells; 22RV1, NR): 4.75; pIC50 (22Rv1 cells; 22RV1, SRB): 4.47; max. inhibition (RWEP-1 cells; 24 h, RWEP1, NR): 15%^b; max. inhibition (RWEP-1 cells; 24 h, RWEP1, SRB): 9%; max. inhibition (RWEP-1 cells; 48 h, RWEP1, NR): 29%; max. inhibition (RWEP-1 cells; 48 h, RWEP1, SRB): 48%; max. inhibition (RWEP-1 cells; 72 h, RWEP1, NR): 11%; max. inhibition (RWEP-1 cells; 72 h, RWEP1, SRB): 26%; IC50 (RWEP-1 cells; RWEP-1, between 1 and 72 hours of treatment): never reached

From patent US8435576B2, “Use of cocoa polyphenols for treating a prostate hyperplasia, a specific cocoa extract and applications” (Barry Callebaut AG, priority 2005, dated 2013)
